The source of these data is publication PMC11855827, “High-Throughput Screening of Five Compound Libraries for Anthelmintic Activity and Toxicity Leads to the Discovery of Two Flavonoid Compounds” (International Journal of Molecular Sciences, 2025).

Read-outs that look alike come from different tables or passages of the source.

The test system of the experiment is C. elegans.
[1] abbreviates: Table S2, C. elegans SS assay, 110 μM, 0 h, averages of 4 data points.
Setting [2] is: Table S2, C. elegans SS assay, 110 μM, 24 h, averages of 4 data points.

With `O=C([O-])c1ccccc1O.[Na+]` [Sodium Salicylate], the “Percentage of motility inhibition 0 h” value under setting [1] was determined as 2%. The “Percentage of motility inhibition 24 h” value under setting [2] turned out to be 4%.
In the case of `O.O.O=C([O-])CC(O)(CC(=O)[O-])C(=O)[O-].[Na+].[Na+].[Na+]` [Sodium citrate (dihydrate)], under setting [1], the “Percentage of motility inhibition 0 h” value is 32%. Further, under setting [2], the “Percentage of motility inhibition 24 h” value was 2%.
With `CCCCCCCC/C=C\CCCCCCCC(=O)[O-].[Na+]` [Sodium oleate], the “Percentage of motility inhibition 0 h” value under setting [1] stood at 0%. Also, the “Percentage of motility inhibition 24 h” value under setting [2] is 0%.
`O.O=C1C=CC[C@@H]2[C@H]3CCCN4CCC[C@@H](CN12)[C@@H]34` [Sophocarpine (monohydrate)]: the “Percentage of motility inhibition 0 h” value under setting [1] amounted to 0%. The “Percentage of motility inhibition 24 h” value under setting [2] came out at 0%.
On to `CC(=O)OC[C@H]1O[C@@H](O[C@@H]2[C@@H](O)[C@H](O[C@@H]3[C@H](O)C(C)(C)C[C@H]4C5=CC[C@@H]6[C@@]7(C)CC[C@H](O[C@@H]8O[C@H](C(=O)O)[C@@H](O)[C@H](O)[C@H]8O[C@@H]8O[C@H](CO)[C@H](O)[C@H](O)[C@H]8O[C@@H]8O[C@H](CO)[C@@H](O)[C@H](O)[C@H]8O)[C@](C)(CO)[C@@H]7CC[C@@]6(C)[C@]5(C)CC[C@@]34C)OC[C@@H]2O)[C@H](OC(C)=O)[C@@H](OC(C)=O)[C@@H]1OC(C)=O` [Soyasaponin Ab], for which the “Percentage of motility inhibition 0 h” value under setting [1] is recorded as 21%. For the same compound, the “Percentage of motility inhibition 24 h” value under setting [2] was 4%.
For the compound `CC1(C)C[C@@H](O)[C@]2(C)CC[C@]3(C)C(=CC[C@@H]4[C@@]5(C)CC[C@H](O[C@@H]6O[C@H](C(=O)O)[C@@H](O)[C@H](O)[C@H]6O[C@@H]6O[C@H](CO)[C@H](O)[C@H](O)[C@H]6O[C@@H]6O[C@H](CO)[C@@H](O)[C@H](O)[C@H]6O)[C@](C)(CO)[C@@H]5CC[C@]43C)[C@@H]2C1` [Soyasaponin Ba], the “Percentage of motility inhibition 0 h” value under setting [1] was found to be 0%. Under setting [2], the “Percentage of motility inhibition 24 h” value came out at 25%.
As to `C[C@@H]1O[C@@H](O[C@H]2[C@H](O[C@H]3[C@H](O[C@H]4CC[C@@]5(C)[C@@H](CC[C@]6(C)[C@@H]5CC=C5[C@@H]7CC(C)(C)C[C@@H](O)[C@]7(C)CC[C@]56C)[C@@]4(C)CO)O[C@H](C(=O)O)[C@@H](O)[C@@H]3O)O[C@H](CO)[C@H](O)[C@@H]2O)[C@H](O)[C@H](O)[C@H]1O` [Soyasaponin Bb], the “Percentage of motility inhibition 0 h” value under setting [1] worked out at 0%. Besides, under setting [2], the “Percentage of motility inhibition 24 h” value is reported as 0%.
Consider `CN[C@@H]1[C@H](O)[C@H](NC)[C@H]2O[C@@]3(O)C(=O)C[C@@H](C)O[C@H]3O[C@@H]2[C@H]1O.Cl.Cl` [Spectinomycin (dihydrochloride)], for which, under setting [1], the “Percentage of motility inhibition 0 h” value stood at 0%. Also, the “Percentage of motility inhibition 24 h” value under setting [2] was 1%.
Take `COc1cc2oc(-c3ccc(O)cc3)cc(=O)c2c(O)c1[C@@H]1O[C@H](CO)[C@@H](O)[C@H](O)[C@H]1O[C@@H]1O[C@H](CO)[C@@H](O)[C@H](O)[C@H]1O` [Spinosin]: where the note is “110 µM”, the “Percentage of motility inhibition 0 h” value is listed as 2% and the “Percentage of motility inhibition 24 h” value is 6%.
For the compound `CCC(C)(C)C(=O)OC1=C(c2ccc(Cl)cc2Cl)C(=O)OC12CCCCC2` [Spirodiclofen], under setting [1], the “Percentage of motility inhibition 0 h” value turned out to be 5%. In addition, the “Percentage of motility inhibition 24 h” value under setting [2] is on record as 0%.
Regarding `C[N+]1(C)CCC[C@H]1C(=O)[O-].Cl` [Stachydrine hydrochloride], under setting [1], the “Percentage of motility inhibition 0 h” value is 15%. Also, the “Percentage of motility inhibition 24 h” value under setting [2] was determined as 26%.
In the same order, the values of `C[N+]1(C)CCC[C@H]1C(=O)[O-]` [Stachydrine] are 0% and 0%.
In the same order, the values of `CCCCCCCCCCCCCCCCCCOC(=O)[C@@]1(C)CC[C@]2(C)CC[C@]3(C)C(=CC(=O)[C@@H]4[C@@]5(C)CC[C@H](O)C(C)(C)[C@@H]5CC[C@]43C)[C@@H]2C1` [Stearyl glycyrrhetinate] are 0% and 0%.
